In article PMC4124913 (Bioorganic & medicinal chemistry, 2013):

How the values were obtained:
Bcr-Abl = Bcr-Abl (Homo sapiens, UniProt P00519); assay: Bcr-Abl kinase assay; details: for ΔΔGbind (exptl): RT ln [IC50(cmpd)/IC50(11a)], 298 K
[1] = test system: K562 cells expressing Abl; assay: In vitro radiotracer accumulation, washout and blocking in K562 cells; assay type: cell-based, human; details: cell cultures, excess cold STI-571

Bcr-Abl, sequence (P00519 whole entry): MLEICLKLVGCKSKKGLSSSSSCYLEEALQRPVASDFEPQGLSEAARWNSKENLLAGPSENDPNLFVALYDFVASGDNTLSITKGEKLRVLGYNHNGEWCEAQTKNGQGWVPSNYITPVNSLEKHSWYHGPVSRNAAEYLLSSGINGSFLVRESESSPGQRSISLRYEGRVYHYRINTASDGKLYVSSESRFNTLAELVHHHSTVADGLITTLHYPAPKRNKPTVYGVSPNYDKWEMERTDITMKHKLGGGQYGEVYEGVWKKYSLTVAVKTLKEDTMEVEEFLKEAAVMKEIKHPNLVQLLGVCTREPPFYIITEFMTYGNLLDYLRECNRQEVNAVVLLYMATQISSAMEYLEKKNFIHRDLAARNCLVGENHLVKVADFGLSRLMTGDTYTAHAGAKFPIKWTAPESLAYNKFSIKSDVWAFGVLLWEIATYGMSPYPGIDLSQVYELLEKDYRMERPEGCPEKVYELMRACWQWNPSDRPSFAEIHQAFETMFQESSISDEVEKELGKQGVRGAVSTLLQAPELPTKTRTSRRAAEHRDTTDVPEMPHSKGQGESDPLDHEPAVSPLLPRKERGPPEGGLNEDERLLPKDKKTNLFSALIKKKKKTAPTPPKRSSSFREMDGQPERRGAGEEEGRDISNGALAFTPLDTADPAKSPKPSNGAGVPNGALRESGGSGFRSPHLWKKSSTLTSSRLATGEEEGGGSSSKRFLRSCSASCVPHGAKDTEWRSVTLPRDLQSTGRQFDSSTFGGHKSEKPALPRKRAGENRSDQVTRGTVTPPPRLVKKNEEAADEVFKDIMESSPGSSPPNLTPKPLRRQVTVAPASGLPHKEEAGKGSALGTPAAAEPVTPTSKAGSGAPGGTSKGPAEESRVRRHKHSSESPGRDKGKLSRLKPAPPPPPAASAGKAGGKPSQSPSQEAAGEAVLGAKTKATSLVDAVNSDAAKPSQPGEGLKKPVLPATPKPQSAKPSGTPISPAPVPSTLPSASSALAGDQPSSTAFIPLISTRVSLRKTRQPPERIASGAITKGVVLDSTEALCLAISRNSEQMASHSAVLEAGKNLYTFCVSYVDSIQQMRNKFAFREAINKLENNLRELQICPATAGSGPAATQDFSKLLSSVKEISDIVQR

| ΔΔGbind (exptl) (Bcr-Abl) [kcal/mol] | IC50 (Bcr-Abl) [µM] | Compound | binding on addition of excess STI-571 (blocking) [1] |
| --- | --- | --- | --- |
| 2.44 | – | Cc1ccc(NC(=O)c2ccc(CN3CCN(CCO)CC3)cc2)cc1Nc1nccc(-c2cccnc2)n1 [Compound 11c] | – |
| 1.47 | 1.3 | Cc1ccc(NC(=O)c2ccc(CN3CCN(CCF)CC3)cc2)cc1Nc1nccc(-c2cccnc2)n1 [Compound 11b] | – |
| 1.10 | – | Cc1ccc(NC(=O)c2ccc(CN3CCN(Cc4ccc(I)cc4)CC3)cc2)cc1Nc1nccc(-c2cccnc2)n1 [Compound 11e] | – |
| – | – | Cc1ccc(NC(=O)c2ccc(CN3CCN(CC[18F])CC3)cc2)cc1Nc1nccc(-c2cccnc2)n1 [Compound 11g] | diminished as excess STI-571 was added |
